Here are results for 4 compounds from PMC6467267 (Chemical research in toxicology, 2019).

Broadly, the Km is the concentration of substrate that gives half-maximal velocity. As a reminder, the stoichiometry N is the number of molecules, sites or subunits per partner or assembly.

One experiment deals with TfIMPDH (Tritrichomonas foetus, UniProt P50097). The experiment is described as follows: biochemical. It is filed as biochemical.
The target in another experiment is CpIMPDH (Cryptosporidium parvum, UniProt Q8T6T2). Description: biochemical. It is filed as biochemical.
Sequence of CpIMPDH (Q8T6T2 whole entry): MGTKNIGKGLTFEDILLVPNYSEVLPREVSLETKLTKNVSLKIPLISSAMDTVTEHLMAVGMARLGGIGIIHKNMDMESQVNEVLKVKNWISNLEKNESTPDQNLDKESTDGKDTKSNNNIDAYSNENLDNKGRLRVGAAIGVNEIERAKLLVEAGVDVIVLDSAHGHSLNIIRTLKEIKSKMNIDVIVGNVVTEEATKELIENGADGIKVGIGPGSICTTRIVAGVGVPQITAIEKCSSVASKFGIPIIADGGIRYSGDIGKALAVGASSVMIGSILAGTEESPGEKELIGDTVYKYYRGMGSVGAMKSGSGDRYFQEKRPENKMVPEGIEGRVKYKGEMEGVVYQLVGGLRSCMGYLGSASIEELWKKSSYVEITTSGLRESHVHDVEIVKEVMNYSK
For experiment [1], the target named is T1, CjIMPDH (Campylobacter jejuni, UniProt Q0P9J4). Description: biochemical. It is filed as biochemical.
Experiment [2] deals with T2, BaIMPDH (Bacillus anthracis, UniProt A0A6L8P2U9). The experiment is described as follows: biochemical. Type of experiment: biochemical.
T2 sequence (A0A6L8P2U9 1-487): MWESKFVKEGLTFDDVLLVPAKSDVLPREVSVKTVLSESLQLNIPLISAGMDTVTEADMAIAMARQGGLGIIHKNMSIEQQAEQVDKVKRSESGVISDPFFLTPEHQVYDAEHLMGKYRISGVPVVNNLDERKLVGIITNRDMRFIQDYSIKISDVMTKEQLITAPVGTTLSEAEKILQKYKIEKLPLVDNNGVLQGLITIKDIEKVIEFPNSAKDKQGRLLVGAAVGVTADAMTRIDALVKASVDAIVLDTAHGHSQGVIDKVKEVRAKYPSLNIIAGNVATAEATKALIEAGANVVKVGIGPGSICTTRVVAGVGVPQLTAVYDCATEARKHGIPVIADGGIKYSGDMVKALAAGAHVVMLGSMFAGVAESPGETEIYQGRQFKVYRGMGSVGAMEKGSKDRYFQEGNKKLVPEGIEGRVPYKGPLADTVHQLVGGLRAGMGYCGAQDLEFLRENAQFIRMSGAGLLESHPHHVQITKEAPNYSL
In the next experiment the target is human IMPDH2 (Homo sapiens, UniProt P12268). The experiment is described as follows: IMPDH steady-state kinetics and inhibition. Type of experiment: biochemical.
For experiment [3], the target named is T2, BaIMPDH. Type of experiment: biochemical.
The target of experiment [4] is T2, BaIMPDH. It is filed as binding. Particulars: read-out: calculated value of Ki.
Experiment [5] concerns the target T2, BaIMPDH. It is filed as biochemical. The source holds these as a separate data set.
Experiment [6] deals with T1, CjIMPDH. Description: Product determination and stoichiometry of inhibition. Type of experiment: biochemical.
The target of experiment [7] is partially purified rat IMPDH. Particulars: mixed inhibition; cited from earlier work.
Experiment [8] deals with CjIMPDHΔS (IMPDH from C. jejuni, CBS domain V92-T195 deleted and replaced with G) (Campylobacter jejuni) (UniProt Q0P9J4). The experiment is described as follows: crystal structure.
[9] abbreviates: read-out: Km, NAD, varying NAD+, saturating IMP, 25 °C, pH 8.
Setting [10] is: uncompetitive substrate inhibition by NAD+.
Where [11] appears, read: read-out: Kis, OxMP, versus IMP, competitive, NAD+ 500 μM.

Read-outs that look alike come from different tables or passages of the source.

Sequence of TfIMPDH (P50097 whole entry): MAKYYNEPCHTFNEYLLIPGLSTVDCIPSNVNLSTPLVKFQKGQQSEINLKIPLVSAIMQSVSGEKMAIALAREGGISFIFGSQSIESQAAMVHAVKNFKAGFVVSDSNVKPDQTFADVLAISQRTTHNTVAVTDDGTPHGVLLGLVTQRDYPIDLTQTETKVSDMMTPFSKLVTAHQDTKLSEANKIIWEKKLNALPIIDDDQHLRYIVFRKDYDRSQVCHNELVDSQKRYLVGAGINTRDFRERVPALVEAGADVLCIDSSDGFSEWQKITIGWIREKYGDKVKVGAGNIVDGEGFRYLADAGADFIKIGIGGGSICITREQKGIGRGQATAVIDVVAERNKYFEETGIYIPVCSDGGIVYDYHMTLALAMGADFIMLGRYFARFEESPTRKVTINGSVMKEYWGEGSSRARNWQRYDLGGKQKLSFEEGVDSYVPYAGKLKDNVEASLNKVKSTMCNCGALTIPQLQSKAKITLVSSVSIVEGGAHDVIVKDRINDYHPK

For `Nc1nc2c(ncn2[C@@H]2O[C@H](COP(=O)(O)O)[C@@H](O)[C@H]2O)c(=O)[nH]1` [GMP, guanosine 5’-monophosphate, reference compound], the Ki on TfIMPDH turned out to be 24000 ± 2000 nM; at CpIMPDH, 21000 ± 1000 nM; on CjIMPDH [1], 8000 ± 900 nM; at BaIMPDH [2], 115000 ± 7000 nM.

Consider `NC(=O)c1ccc[n+]([C@@H]2O[C@H](COP(=O)([O-])OP(=O)(O)OC[C@H]3O[C@@H](n4cnc5c(N)ncnc54)[C@H](O)[C@@H]3O)[C@@H](O)[C@H]2O)c1` [NAD], for which the Km on human IMPDH2 (setting [9]) is 7 ± 1.7 µM; on TfIMPDH (setting [9]) it was 80 ± 3 µM; on CpIMPDH (setting [9]), 45 ± 3 µM; on CjIMPDH [1] (setting [9]), 66 ± 5 µM; on BaIMPDH [2] (read-out: Km, NAD, pH 8), 700 ± 40 µM. Also, the “Kii, NAD” value stood at 0.49 ± 0.12 mM at human IMPDH2 (setting [10]); 5.4 ± 0.3 mM at TfIMPDH (setting [10]); 6.5 ± 0.5 mM at CpIMPDH (setting [10]); 4.1 ± 0.3 mM at CjIMPDH [1] (setting [10]); 8.1 ± 0.5 mM at BaIMPDH [2].

For the compound `Nc1nc2c(ncn2[C@@H]2O[C@H](COP(=O)(O)O)[C@@H](O)[C@H]2O)c(=O)o1` [OxMP, oxanosine monophosphate], the “Kis, GMP /Kis, OxMP” value at human IMPDH2 (ratio of Kis values) came to 280; at TfIMPDH (ratio of Kis values), 140; at CpIMPDH (ratio of Kis values), 240; on CjIMPDH [1] (ratio of Kis values), 160; at BaIMPDH [2] it was 340. In addition, the Ki at human IMPDH2 (setting [11]) is 130 ± 20 nM; on TfIMPDH (setting [11]), 170 ± 20 nM; at CpIMPDH (setting [11]), 90 ± 10 nM; at CjIMPDH [1] (setting [11]), 51 ± 6 nM; at BaIMPDH [2] (read-out: Kis, OxMP), 340 ± 50 nM; at BaIMPDH [4], 330 nM. The Ki in experiment [7] was 1000 to 5000 nM. Also, the “dissociation rate constant koff” value at BaIMPDH [3] amounted to 0.0019 s⁻¹. Also, the “hydrolysis of OxMP to UrMP by the enzyme” value on BaIMPDH [5] is “no free UrMP was detected”; on CjIMPDH [6] (enzyme and OxMP in a 1:1 ratio for 4 h, LC-MS), “no free UrMP was detected”. The stoichiometry of inhibition on BaIMPDH [5] worked out at 1 OxMP/active site; on CjIMPDH [6] (incubated 5 min, initial rates), 1 OxMP/active site.

Turning to “CjIMPDHΔS (IMPDH from C. jejuni, CBS domain V92-T195 deleted and replaced with G) (from UniProt Q0P9J4) (enzyme)”, the stoichiometry N in experiment [8] was 4.
